# Experiments:
# yeast α-glucosidase = molecular target: T1, yeast α-glucosidase (Saccharomyces cerevisiae, UniProt P53341); assay: biochemical; format: biochemical; details: for α-glucosidase inhibitory activity in words: SAR discussion of Table 1; for IC50: yeast α-glucosidase, mean ± SD of three independent experiments
# T1 construct: purchased Sigma-Aldrich
# Description: The in vitro enzymatic inhibitory activity of phthalimide-phenoxy-1,2,3-triazole-N-phenyl (or benzyl) acetamide 11a–n was evaluated against yeast α-glucosidase.
# The change in absorbance was measured at 405 nm using by a standard spectrophotometer (Gen5, Power wave xs2, BioTek, America).
# α-glucosidase = molecular target: T2, α-glucosidase (Saccharomyces cerevisiae, UniProt P53341); assay: Kinetic study of α-glucosidase inhibition (Lineweaver–Burk); format: biochemical
# T2 construct: purchased Sigma-Aldrich
# Description: For this purpose, the reaction rates in the presence of different concentrations of compound 11j were measured in various concentrations of substrate (p-nitrophenyl-a-D-glucopyranoside). Graphs of different concentrations of inhibitor were drawn by the Lineweaver–Burk plot (Fig. 2a). […] The Ki value was calculated directly by plotting the slope of each line in the Lineweaver–Burk plots into the different concentrations of compound 11j (Fig. 2b).
# The 20 µL of α-glucosidase solution (1 U/mL) was incubated with different concentrations of compound 11j (0, 12, 23 and 46 µM) for 15 min at 30 °C. The reaction was then started by adding different concentrations of substrate (1–10 mM) and change in absorbance was measured for 20 min at 405 nm using by spectrophotometer (Gen5, Power wave xs2, BioTek, America).
# T1 sequence (P53341 whole entry): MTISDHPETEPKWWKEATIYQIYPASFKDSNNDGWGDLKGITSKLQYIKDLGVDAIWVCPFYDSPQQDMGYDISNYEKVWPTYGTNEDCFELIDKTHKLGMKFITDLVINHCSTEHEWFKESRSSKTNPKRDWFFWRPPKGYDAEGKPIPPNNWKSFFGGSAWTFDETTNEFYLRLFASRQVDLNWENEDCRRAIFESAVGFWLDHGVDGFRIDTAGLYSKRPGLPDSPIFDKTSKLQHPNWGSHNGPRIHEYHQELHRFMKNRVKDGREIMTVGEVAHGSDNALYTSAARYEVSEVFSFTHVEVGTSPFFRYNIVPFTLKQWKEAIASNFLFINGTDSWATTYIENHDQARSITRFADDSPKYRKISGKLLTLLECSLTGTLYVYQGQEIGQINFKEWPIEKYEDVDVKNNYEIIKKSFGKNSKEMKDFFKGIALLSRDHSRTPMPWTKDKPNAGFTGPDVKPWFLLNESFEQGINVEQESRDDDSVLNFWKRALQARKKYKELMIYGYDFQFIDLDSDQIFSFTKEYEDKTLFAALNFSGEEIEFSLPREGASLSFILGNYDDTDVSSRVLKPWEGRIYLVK
# T2 sequence (P53341 whole entry): as above
smiles,measurement,setting,value
"CCc1ccc(NC(=O)Cn2cc(COc3ccc(N4C(=O)c5ccccc5C4=O)cc3)nn2)cc1 [Compound 11d, 2-(4-((4-(1,3-dioxoisoindolin-2-yl)phenoxy)methyl)-1H-1,2,3-triazol-1-yl)-N-(4-ethylphenyl)acetamide]",α-glucosidase inhibitory activity in words,yeast α-glucosidase,significant decrease in the inhibitory activity
same,IC50,yeast α-glucosidase,491.68 ± 0.11 µM
same,melting point,,202 to 204 °C
"O=C(Cn1cc(COc2ccc(N3C(=O)c4ccccc4C3=O)cc2)nn1)Nc1cccc(Cl)c1 [Compound 11f, N-(3-chlorophenyl)-2-(4-((4-(1,3-dioxoisoindolin-2-yl)phenoxy)methyl)-1H-1,2,3-triazol-1-yl)acetamide]",IC50,yeast α-glucosidase,112.16 ± 0.03 µM
same,melting point,,210 to 212 °C
"Cc1cc([N+](=O)[O-])ccc1NC(=O)Cn1cc(COc2ccc(N3C(=O)c4ccccc4C3=O)cc2)nn1 [Compound 11l, 2-(4-((4-(1,3-dioxoisoindolin-2-yl)phenoxy)methyl)-1H-1,2,3-triazol-1-yl)-N-(2-methyl-4-nitrophenyl)acetamide]",IC50,yeast α-glucosidase,273.3 ± 0.28 µM
same,melting point,,228 to 230 °C
"O=C(Cn1cc(COc2ccc(N3C(=O)c4ccccc4C3=O)cc2)nn1)Nc1ccc(Br)cc1 [Compound 11j, N-(4-bromophenyl)-2-(4-((4-(1,3-dioxoisoindolin-2-yl)phenoxy)methyl)-1H-1,2,3-triazol-1-yl)acetamide]",α-glucosidase inhibitory activity in words,yeast α-glucosidase,moderate anti-α-glucisidase activity
same,IC50,yeast α-glucosidase,45.26 ± 0.03 µM
same,Inhibition mode,α-glucosidase; Lineweaver–Burk plot,competitive inhibitor
same,Ki,"α-glucosidase; secondary re-plot of Lineweaver–Burk slopes, substrate p-nitrophenyl-a-D-glucopyranoside",50.4 µM
same,melting point,,237 to 239 °C
"O=C(Cn1cc(COc2ccc(N3C(=O)c4ccccc4C3=O)cc2)nn1)Nc1ccccc1 [Compound 11a, 2-(4-((4-(1,3-dioxoisoindolin-2-yl)phenoxy)methyl)-1H-1,2,3-triazol-1-yl)-N-phenylacetamide]",IC50,yeast α-glucosidase,203.8 ± 0.32 µM
same,melting point,,218 to 220 °C
"O=C(Cn1cc(COc2ccc(N3C(=O)c4ccccc4C3=O)cc2)nn1)Nc1ccc(Cl)cc1Cl [Compound 11h, N-(2,4-dichlorophenyl)-2-(4-((4-(1,3-dioxoisoindolin-2-yl)phenoxy)methyl)-1H-1,2,3-triazol-1-yl)acetamide]",IC50,yeast α-glucosidase,284 ± 0.41 µM
same,melting point,,232 to 234 °C
"Cc1cccc(C)c1NC(=O)Cn1cc(COc2ccc(N3C(=O)c4ccccc4C3=O)cc2)nn1 [Compound 11c, N-(2,6-dimethylphenyl)-2-(4-((4-(1,3-dioxoisoindolin-2-yl)phenoxy)methyl)-1H-1,2,3-triazol-1-yl)acetamide]",α-glucosidase inhibitory activity in words,yeast α-glucosidase,inactive
same,melting point,,209 to 211 °C
"O=C(Cn1cc(COc2ccc(N3C(=O)c4ccccc4C3=O)cc2)nn1)Nc1cccc(Cl)c1Cl [Compound 11g, N-(2,3-dichlorophenyl)-2-(4-((4-(1,3-dioxoisoindolin-2-yl)phenoxy)methyl)-1H-1,2,3-triazol-1-yl)acetamide]",α-glucosidase inhibitory activity in words,yeast α-glucosidase,moderate anti-α-glucisidase activity
same,IC50,yeast α-glucosidase,239.1 ± 0.41 µM
same,melting point,,203 to 205 °C
"O=C(Cn1cc(COc2ccc(N3C(=O)c4ccccc4C3=O)cc2)nn1)NCc1ccccc1 [Compound 11m, N-benzyl-2-(4-((4-(1,3-dioxoisoindolin-2-yl)phenoxy)methyl)-1H-1,2,3-triazol-1-yl)acetamide]",α-glucosidase inhibitory activity in words,yeast α-glucosidase,inactive
same,IC50,yeast α-glucosidase,> 750 µM
same,melting point,,201 to 203 °C
"O=C(Cn1cc(COc2ccc(N3C(=O)c4ccccc4C3=O)cc2)nn1)Nc1cccc(F)c1 [Compound 11e, 2-(4-((4-(1,3-dioxoisoindolin-2-yl)phenoxy)methyl)-1H-1,2,3-triazol-1-yl)-N-(3-fluorophenyl)acetamide]",IC50,yeast α-glucosidase,188.3 ± 0.27 µM
same,melting point,,204 to 206 °C
"O=C(Cn1cc(COc2ccc(N3C(=O)c4ccccc4C3=O)cc2)nn1)NCc1ccc(F)cc1 [Compound 11n, 2-(4-((4-(1,3-dioxoisoindolin-2-yl)phenoxy)methyl)-1H-1,2,3-triazol-1-yl)-N-(4-fluorobenzyl)acetamide]",IC50,yeast α-glucosidase,685.99 ± 0.32 µM
same,melting point,,204 to 206 °C
"Cc1cccc(NC(=O)Cn2cc(COc3ccc(N4C(=O)c5ccccc5C4=O)cc3)nn2)c1C [Compound 11b, N-(2,3-dimethylphenyl)-2-(4-((4-(1,3-dioxoisoindolin-2-yl)phenoxy)methyl)-1H-1,2,3-triazol-1-yl)acetamide]",Fold less potent than compound 11a,yeast α-glucosidase; ratio of IC50 values,1.8 fold
same,IC50,yeast α-glucosidase,366.1 ± 0.86 µM
same,melting point,,206 to 208 °C
"O=C(Cn1cc(COc2ccc(N3C(=O)c4ccccc4C3=O)cc2)nn1)Nc1ccc([N+](=O)[O-])cc1 [Compound 11k, 2-(4-((4-(1,3-dioxoisoindolin-2-yl)phenoxy)methyl)-1H-1,2,3-triazol-1-yl)-N-(4-nitrophenyl)acetamide]",α-glucosidase inhibitory activity in words,yeast α-glucosidase,complete loss of inhibitory activity
same,IC50,yeast α-glucosidase,> 750 µM
same,melting point,,260 to 262 °C
"O=C(Cn1cc(COc2ccc(N3C(=O)c4ccccc4C3=O)cc2)nn1)Nc1c(Cl)cccc1Cl [Compound 11i, N-(2,6-dichlorophenyl)-2-(4-((4-(1,3-dioxoisoindolin-2-yl)phenoxy)methyl)-1H-1,2,3-triazol-1-yl)acetamide]",IC50,yeast α-glucosidase,46.2 ± 0.89 µM
same,melting point,,202 to 204 °C

# — paper PMC10282079, “Design, synthesis, in vitro anti-α-glucosidase evaluations, and computational studies of new phthalimide-phenoxy-1,2,3-triazole-N-phenyl (or benzyl) acetamides as potential anti-diabetic agents” (Scientific Reports, 2023)
